Reference: US20050169912A1, “Immunogenic peptides and uses thereof” (priority 2001, published 2005)

System: antibody in sera from Helicobacter pylori infected patients and healthy control subjects
Assay: Immunoassay detecting serum antibodies specific for individual peptide antigens
Type: binding, human
Conditions: for functional specificity for the H. pylori protein: candidate sequences tested, FIGS. 4 and 5; for ability of peptide to identify Helicobacter pylori infected individuals: 30 infected patients vs 30 healthy controls, threshold control mean plus 2.5 standard deviations
Description: 1. Possible Outcomes for Peptides Screened as Antigens in Serum Antibody Assays:
1. A positive result indicating the presence of a peptide-specific antibody in patient biological fluid samples, absent evidence of antibody in samples from subjects without the microorganism or autoimmune disease (FIG. 3) indicates the tested peptide is a specific peptide (immunogen) for a targeted protein.
3. No difference in positive antibody levels between patients and subjects without disease.
2. Immunoassay Method 1: Used to Detect Serum IgA, IgD, IgE, IgG, and IgM Antibodies Specific for Individual Peptide Antigens
Peptide solution: 0.06 μg/mL peptide dissolved in 20 mM Tris chloride, pH 7.4, containing 600 mM sodium chloride, 30 mg/mL polyethylene glycol 4000, 1 mm ethylenediaminetetraacetic acid, 1 mM ethylene glycol-bis(§-aminoethyl ether)N,N,N′,N′-tetraacetic acid, 0.5 mg/mL triton x-405 and 0.2 mg/mL thimerosal.
Control peptide solution: 0.013 μg/mL control peptide dissolved in 20 mM Tris chloride, pH 7.4, containing 600 mM sodium chloride, 30 mg/mL polyethylene glycol 4000, 1 mm ethylenediaminetetraacetic acid, 1 mM ethylene glycol-bis(§-aminoethyl ether)N,N,N′,N′-tetraacetic acid, 0.5 mg/mL triton x-405 and 0.2 mg/mL thimerosal.
Conjugate solution: 0.100 μg/mL alkaline phosphatase conjugated polyclonal goat anti human IgG dissolved in 20 mM Tris-HCL, pH 7.40, with 600 mM sodium chloride, 30.0 mg/mL peg-4000, 3.0 mg/mL BSA, 0.5 mg/mL triton x-405 and 0.20 mg/mL thimerosal.
Substrate solution: 25.2 μg/mL 4-methylumbelliferyl phosphate dissolved in 180 mM 2-amino-2-methyl-1-propanol, pH 9.50, containing 123 μM magnesium chloride.
Serum preparation: • 1. Add 100 μl serum to 15 neutravidin^a coated paper discs in a suitably sized test tube. • 2. Incubate with gentle mixing at ambient temperature for 16-20 hours. • 3. Add 7.9 mL of serum diluent and mix gently for 30 minutes. • 4. Vortex the tube gently to completely release the serum from the discs. • 5. Remove the treated serum from the discs and transfer it to a suitable storage tube. • 6. Store the treated serum at 4 EC.
Assay procedure: • 1. Two days before assay, aspirate the storage solution from the NeutrAvidin^a coated white microtiter plate and add 200 μl plate blocking solution to each well. • 2. Cover the plate and incubate at ambient temperature for 16-20 hours. • 3. One day before assay. Wash the blocked plate three times with plate wash buffer, approximately 275 μl per well per wash. Aspirate the final wash and add 100 μl peptide solution or 100 μl control peptide solution to the appropriate wells of the plate. • 4. Cover the plate and incubate with gentle mixing at ambient temperature for 16-20 hours. • 5. Day of assay, wash the blocked plate three times with plate wash buffer, approximately 275 μl per well per wash. Aspirate the final wash and add 100 μl treated serum to the appropriate wells of the plate. • 6. Cover the plate and incubate at 25 EC for 2 hours. • 7. Wash the blocked plate six times with plate wash buffer, approximately 275 μl per well per wash. Aspirate the final wash and add 100 μl conjugate solution to each assay well. • 8. Cover the plate and incubate at 25 EC for 1.5 hours. • 9. Wash the blocked plate six times with plate wash buffer, approximately 275 μl per well per wash. Aspirate the final wash and add 100 μl substrate solution to each assay well. • 10. Read the plate at 30 and 60 minutes in a fluorescence microtiter plate reader set at 365 nm excitation and 450 nm emission. 3. Biotinylation of Human Serum Albumin

Sequence | functional specificity for the H. pylori protein | detection of fluids from infected persons (Example 1, FIGS. 3-5) | Helicobacter pylori infected individuals identified by the peptide (sera from 30 H. pylori infected patients, positive/negative threshold control mean) | control sera identified as positive for the peptide (sera from 30 healthy control subjects, antibodies to the peptide) | ability of peptide to identify Helicobacter pylori infected individuals
KNLESYQKDA | not functionally specific |  |  |  | 
MQEIDKKLTQKN |  | detected fluids from infected persons | three | no control sera were incorrectly identified as positive | 
QKDAKECKGKRN |  |  |  |  | does not serve to identify Helicobacter pylori infected individuals
QKDAKELKGKRN | not functionally specific |  |  |  | does not serve to identify Helicobacter pylori infected individuals
